Measurements taken from patent publication US20180371044A1, “PEPTIDOMIMETIC MACROCYCLES” (Aileron Therapeutics, Inc., priority 2015, published 2018).
Where a SMILES comes first, the peptide text is derived from it. Bridges are numbered along the chain shown (N, C = ends). [ ]: non-standard residue; d: D form. NMeY = CN[C@@H](Cc1ccc(O)cc1)C(=O)O; S5 = C=CCCC[C@](C)(N)C(=O)O; Nle = CCCC[C@H](N)C(=O)O

Experiments:
[1] = target: T1, VIPR1 (Vasointestinal Peptide Receptor 1) (Homo sapiens, UniProt P32241); experiment: DiscoverX cAMP Hunter eXpress VIPR1 CHO-K1 GPCR assay; type: cell-based; settings: VIPR1 CHO-K1 cells
T1 construct: host or cells: CHO-K1 (cAMP Hunter eXpress VIPR1 CHO-K1 GPCR assay kit)
T1 sequence (P32241 31-457): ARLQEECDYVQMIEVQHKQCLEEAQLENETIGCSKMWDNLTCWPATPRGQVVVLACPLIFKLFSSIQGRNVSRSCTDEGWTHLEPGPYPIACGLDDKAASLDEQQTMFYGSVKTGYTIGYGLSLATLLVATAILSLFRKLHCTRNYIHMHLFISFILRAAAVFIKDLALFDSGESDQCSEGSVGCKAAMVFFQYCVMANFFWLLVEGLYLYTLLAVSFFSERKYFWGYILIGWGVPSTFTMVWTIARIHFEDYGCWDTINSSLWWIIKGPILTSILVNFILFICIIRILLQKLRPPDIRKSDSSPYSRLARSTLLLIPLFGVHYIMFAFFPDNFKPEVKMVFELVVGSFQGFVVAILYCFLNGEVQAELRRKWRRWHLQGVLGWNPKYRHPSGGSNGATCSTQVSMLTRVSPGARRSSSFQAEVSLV
Excerpt: DiscoverX cAmP Hunter eXpress VIPRI CHO-K1 GPCR and GHRHR CHO-K1 GPCR assays kits were used. The DiscoverX kits contain naturally coupled GPCR cell lines designed to detect GPCR signaling through second messenger activation. This signaling involves a membrane bound enzyme called adenylate cyclase. […] receptors modulate cAMP by either inhibiting or stimulating adenylate cyclase, respectively. The DiscoverX cell lines included in the kits utilize the natural coupling status of the GPCR to monitor activation of […] receptors. Following ligand stimulation, the functional status of the GPCR is monitored by measuring cellular cAMP levels using a homogeneous, gain of signal competitive immunoassay based on Enzyme Fragment Complementation (EFC). The amount of EFC is measured by analysis with a fluorescent plate reader.
On the day before the assay, the DiscoverX cell lines were defrosted, plated into 384 well plates and allowed to incubate overnight. All the samples were diluted to 2 mM using 100% DMSO. The vials were sonicated and centrifuged to assure all peptides went into solution. The final volumes were small, 80-200 μl. An 80% purity and peptide content was assumed for all samples and dilutions were based on the molecular weights. On the day of the assay, the samples were diluted to 200 μM in water and then to 4 μM in DiscoverX assay buffer (supplemented with 0.1% BSA). Serial dilutions were performed on assay day, 16 dilutions from 1000 nM were run side by side in duplicate for each peptide for study. The assays were performed in the 384 well plates with the assistance of a CyBio Bi-Well 384 channel liquid handling robot. The samples were analyzed on a Tecan Ultra Evolution plate reader according to DiscoverX guidelines. The EC50 values were determined using GraphPad Prism software. The EC50 value is defined as the concentration of agonist that provokes a response halfway between the baseline and maximum response.
DiscoverX™ cAmP Hunter eXpress VIPR1 CHO-K1 GPCR and GHRHR CHO-K1 GPCR assay kits were used. On the day before the assay, the DiscoverX™ cell lines were defrosted, plated into 384 well plates and allowed to incubate overnight. All the samples were diluted to 2 mM using 100% DMSO. The vials were sonicated and centrifuged to assure all peptides went into solution. The final volumes were small, 80-200 μl. An 80% purity and peptide content was assumed for all samples and dilutions were based on the molecular weights. On the day of the assay, the samples were diluted to 200 μM in water and then to 4 μM in DiscoverX™ assay buffer (supplemented with 0.1% BSA). Serial dilutions were performed on assay day, 16 dilutions from 1000 nM were run side by side in duplicate for each peptide for study. The assays were performed in the 384 well plates with the assistance of a CyBio™ Bi-Well 384 channel liquid handling robot. The samples were analyzed on a Tecan™ Ultra Evolution plate reader according to DiscoverX™ guidelines. The EC50 values were determined using GraphPad™ Prism software. The EC50 value is defined as the concentration of agonist that provokes a response halfway between the baseline and maximum response. (+=>25 nM; ++=>10-25 nM; +++=>1-10 nM; ++++=>0.1-1 nM; +++++=<0.1 nM). […]

GHRHR = target: T2, GHRHR (Homo sapiens, UniProt Q02643); experiment: DiscoverX cAMP Hunter eXpress GHRHR CHO-K1 GPCR assay; type: cell-based; settings: for Selectivity: EC50 in VIPR1 CHO-K1 cells divided by EC50 in GHRHR CHO-K1 cells; for EC50: GHRHR CHO-K1 cells, cAMP
T2 construct: host or cells: CHO-K1 (cAMP Hunter eXpress GHRHR CHO-K1 GPCR assay kit)
T2 sequence (Q02643 23-423): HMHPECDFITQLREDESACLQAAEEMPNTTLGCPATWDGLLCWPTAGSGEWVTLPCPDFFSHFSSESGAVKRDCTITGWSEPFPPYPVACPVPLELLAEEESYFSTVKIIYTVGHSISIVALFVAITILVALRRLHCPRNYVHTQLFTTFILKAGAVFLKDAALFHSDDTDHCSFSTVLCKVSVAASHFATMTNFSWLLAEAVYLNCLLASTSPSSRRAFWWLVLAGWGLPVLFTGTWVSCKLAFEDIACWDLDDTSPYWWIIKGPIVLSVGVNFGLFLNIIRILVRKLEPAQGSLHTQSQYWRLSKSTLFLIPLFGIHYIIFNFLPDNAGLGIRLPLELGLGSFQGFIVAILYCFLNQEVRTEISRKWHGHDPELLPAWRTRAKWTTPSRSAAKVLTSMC
Description: DiscoverX cAmP Hunter eXpress VIPRI CHO-K1 GPCR and GHRHR CHO-K1 GPCR assays kits were used. […] Following ligand stimulation, the functional status of the GPCR is monitored by measuring cellular cAMP levels using a homogeneous, gain of signal competitive immunoassay based on Enzyme Fragment Complementation (EFC). The amount of EFC is measured by analysis with a fluorescent plate reader.
DiscoverX™ cAmP Hunter eXpress VIPR1 CHO-K1 GPCR and GHRHR CHO-K1 GPCR assay kits were used. On the day before the assay, the DiscoverX™ cell lines were defrosted, plated into 384 well plates and allowed to incubate overnight. All the samples were diluted to 2 mM using 100% DMSO. The vials were sonicated and centrifuged to assure all peptides went into solution. The final volumes were small, 80-200 μl. An 80% purity and peptide content was assumed for all samples and dilutions were based on the molecular weights. On the day of the assay, the samples were diluted to 200 μM in water and then to 4 μM in DiscoverX™ assay buffer (supplemented with 0.1% BSA). Serial dilutions were performed on assay day, 16 dilutions from 1000 nM were run side by side in duplicate for each peptide for study. The assays were performed in the 384 well plates with the assistance of a CyBio™ Bi-Well 384 channel liquid handling robot. The samples were analyzed on a Tecan™ Ultra Evolution plate reader according to DiscoverX™ guidelines. The EC50 values were determined using GraphPad™ Prism software. The EC50 value is defined as the concentration of agonist that provokes a response halfway between the baseline and maximum response. […] The selectivity value is the concentration of agonist that provokes a response halfway between the baseline and maximum response in VIPR1 CHO-K1 cells divided by the concentration of agonist that provokes a response halfway between the baseline and maximum response in GHRHR CHO-K1 cells.

Plasma compatibility = type: physicochemical
Description: The plasma compatibility of exemplary peptidomimetic macrocycles was also determined. Peptidomimetic macrocycles with a plasma compatability value (PC) that is greater than 0.1 were determined as being plasma compatible.

[2] = target: T3, human GHRH receptor (hGHRHR) (Homo sapiens, UniProt Q02643); experiment: GHRHR agonism measured by cAMP (HTRF) in human 293 cells expressing hGHRHR; type: cell-based; settings: 30 min at RT;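 also: receptor expressed transiently or stably, cells stimulated in serum-free medium, EC50 from a non-linear dose-response fit, maximal response defined by reference GHRH stimulation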
T3 construct: expressed in transfected cells; host or cells: Human 293 cells
T3 sequence (Q02643 23-423): T2 sequence (Q02643 23-423)
Description: GHRH (1-29) and cross-linked peptidomimetic macrocycles were tested for agonism at the human GHRH receptor (hGHRHR) at various concentrations. Human 293 cells transiently or stably expressing hGHRHR were detached from cell culture flasks with versene (Life Technologies™), suspended in serum-free medium (50 k cells/assay point), and stimulated for 30 min at RT with GHRH (1-29) (Bachem™) or cross-linked peptidomimetic macrocycles. cAMP was quantified using an HTRF®-based assay (CisBio) and used according to the manufacturer's instructions. An EC50 for each agonist was calculated from a non-linear fit of response vs dose (GraphPad™ Prism). The maximum response was determined by stimulating with 10 μM GHRH (1-29). (+=>50 nm; ++=>25-50 nm; +++=>10-25 nm; ++++=>1-10 nm; +++++=≤1 nm).

[3] = Solubility by measuring turbidity (OD600) in human plasma; type: physicochemical
Description: In some embodiments, a peptidomimetic macrocycle can be prepared based on solubility of the polypeptide, for example if the prepared peptidomimetic macrocycle is determined to be soluble based on visual examination of the turbidity of a solution of the polypeptide. In some embodiments, an aqueous solubility of the peptidomimetic macrocycle is determined by evaluating the turbidity of a solution comprising the peptidomimetic macrocycle. In some embodiments, a plasma solubility of the peptidomimetic macrocycle is determined by evaluating the turbidity of a solution comprising the peptidomimetic macrocycle.
Increasing amounts of SP-3 and SP-133 were added to human plasma. The OD600 of each of the solutions was then measured.

Row | EC50 [1] [nM] | Selectivity (GHRHR) | EC50 (GHRHR) [nM] | Plasma Compatability (Plasma compatibility) [mg/mL] | EC50 [2] [nM] | Molecule | OD600 ([3]; 7 mg/mL) | OD600 ([3]; 10 mg/mL) | OD600 ([3]; 12 mg/mL) | OD600 ([3]; 16 mg/mL) | OD600 ([3]; 21 mg/mL) | OD600 ([3]; 27 mg/mL) | OD600 ([3]; 35 mg/mL) | OD600 ([3]; 46 mg/mL) | OD600 ([3]; 59 mg/mL) | OD600 ([3]; 77 mg/mL) | OD600 ([3]; 100 mg/mL) | turbidity ([3]; up to 100 mg/mL)
1 | 0.1 to 1 | + (+=<5) | 0.1 to 1 | 1.6 |  | CCCC[C@H](NC(=O)[C@@H](NC(=O)[C@H](CC(=O)O)NC(=O)[C@H](CCC(N)=O)NC(=O)[C@H](CC(C)C)NC(=O)[C@H](C)NC(=O)[C@H](CCCCN)NC(=O)[C@H](CCCNC(=N)N)NC(=O)[C@H](C)NC(=O)[C@H](CO)NC(=O)[C@]1(C)CCCC=CCCC[C@](C)(NC(=O)[C@H](CCCCN)NC(=O)[C@H](CCCNC(=N)N)NC(=O)[C@H](Cc2ccc(O)cc2)NC(=O)[C@H](CO)NC(=O)[C@H](CCC(N)=O)NC(=O)[C@@H](NC(=O)[C@H](Cc2ccccc2)NC(=O)[C@@H](NC(=O)[C@H](C)NC(=O)[C@H](CC(=O)O)NC(=O)[C@@H](C)NC(=O)[C@H](Cc2ccc(O)cc2)NC)[C@@H](C)CC)[C@@H](C)O)C(=O)N[C@@H](CC(C)C)C(=O)N[C@@H](C)C(=O)N[C@@H](CCC(N)=O)C(=O)N1)[C@@H](C)CC)C(=O)N[C@@H](CO)C(=O)N[C@@H](CCCNC(=N)N)C(N)=O [SP-69] (H-[NMeY][dA]DAIFTQSYRK[S5]LAQ[S5]SARKALQDI[Nle]SR-NH2; staple 13-17) |  |  |  |  |  |  |  |  |  |  |  | 
2 | < 0.1 | + (+=<5) | < 0.1 | 1.6 | ≤ 1 | CCCC[C@H](NC(=O)[C@@H](NC(=O)[C@H](CC(=O)O)NC(=O)[C@H](CCC(N)=O)NC(=O)[C@H](CC(C)C)NC(=O)[C@H](C)NC(=O)[C@H](CCCCN)NC(=O)[C@H](CCCNC(=N)N)NC(=O)[C@H](C)NC(=O)[C@H](CO)NC(=O)[C@]1(C)CCCC=CCCC[C@](C)(NC(=O)[C@H](CCCCN)NC(=O)[C@H](CCCNC(=N)N)NC(=O)[C@H](Cc2ccc(O)cc2)NC(=O)[C@H](CO)NC(=O)[C@H](C)NC(=O)[C@@H](NC(=O)[C@H](Cc2ccccc2)NC(=O)[C@@H](NC(=O)[C@H](C)NC(=O)[C@H](CC(=O)O)NC(=O)[C@H](C)NC(=O)[C@H](Cc2ccc(O)cc2)NC)[C@@H](C)CC)[C@@H](C)O)C(=O)N[C@@H](CC(C)C)C(=O)N[C@@H](C)C(=O)N[C@@H](CCC(N)=O)C(=O)N1)[C@@H](C)CC)C(=O)N[C@@H](CO)C(=O)N[C@@H](CCCNC(=N)N)C(N)=O [SP-12] (H-[NMeY]ADAIFTASYRK[S5]LAQ[S5]SARKALQDI[Nle]SR-NH2; staple 13-17) |  |  |  |  |  |  |  |  |  |  |  | 
3 | 0.1 to 1 |  |  | 4.6 |  | CC[C@H](C)[C@H](NC(=O)[C@H](C)NC(=O)[C@H](CC(=O)O)NC(=O)[C@H](C)NC(=O)[C@@H](N)Cc1ccc(O)cc1)C(=O)N[C@@H](Cc1ccccc1)C(=O)N[C@H](C(=O)N[C@@H](CC(N)=O)C(=O)N[C@@H](CO)C(=O)N[C@@H](Cc1ccc(O)cc1)C(=O)N[C@@H](CCCNC(=N)N)C(=O)N[C@@H](CCCCN)C(=O)N[C@H](C(=O)N[C@@H](CC(C)C)C(=O)NCC(=O)N[C@@H](CCC(N)=O)C(=O)N[C@@H](CC(C)C)C(=O)N[C@@H](CO)C(=O)N[C@@H](C)C(=O)N[C@@H](CCCNC(=N)N)C(=O)N[C@@H](CCCCN)C(=O)N[C@@H](CC(C)C)C(=O)N[C@@H](CC(C)C)C(=O)N[C@@H](CCC(N)=O)C(=O)N[C@@H](CC(=O)O)C(=O)N[C@H](C(=O)N[C@@H](CCSC)C(=O)N[C@@H](CO)C(=O)N[C@@H](CCCNC(=N)N)C(N)=O)[C@@H](C)CC)C(C)C)[C@@H](C)O [SP-2, reference compound] |  |  |  |  |  |  |  |  |  |  |  | 
4 | 10 to 25 | +++++ (+++++=>50) | 0.1 to 1 | 0.9 | 1 to 10 | CCCC[C@H](NC(=O)[C@@H](NC(=O)[C@]1(C)CCCC=CCCC[C@](C)(NC(=O)[C@H](CCCNC(=N)N)NC(=O)[C@H](C)NC(=O)[C@H](CO)NC(=O)[C@H](CC(C)C)NC(=O)[C@H](CCC(N)=O)NC(=O)CNC(=O)[C@H](CC(C)C)NC(=O)[C@@H](NC(=O)[C@H](CCCCN)NC(=O)[C@H](CCCNC(=N)N)NC(=O)[C@H](Cc2ccc(O)cc2)NC(=O)[C@H](CO)NC(=O)[C@]2(C)CCCC=CCCC[C@](C)(NC(=O)[C@H](CC(=O)O)NC(=O)[C@@H](C)NC(=O)[C@@H](N)Cc3ccc(O)cc3)C(=O)N[C@@H]([C@@H](C)CC)C(=O)N[C@@H](Cc3ccccc3)C(=O)N[C@@H]([C@@H](C)O)C(=O)N2)C(C)C)C(=O)N[C@@H](CC(C)C)C(=O)N[C@@H](CC(C)C)C(=O)N[C@@H](CCC(N)=O)C(=O)N1)[C@@H](C)CC)C(=O)N[C@@H](CO)C(=O)N[C@@H](CCCNC(=N)N)C(N)=O [SP-3] (H-Y[dA]D[S5]IFT[S5]SYRKVLGQLSAR[S5]LLQ[S5]I[Nle]SR-NH2; staple 4-8, 21-25) | 0.8 | 1.0 | 1.2 | 1.2 | 1.4 | 1.6 | 1.6 | 1.7 | 1.8 | 1.7 | 1.5 | 

Row | Molecule | EC50 [1] [nM] | Selectivity (GHRHR) | EC50 (GHRHR) [nM] | Plasma Compatability (Plasma compatibility) [mg/mL] | EC50 [2] [nM] | OD600 ([3]; 7 mg/mL) | OD600 ([3]; 10 mg/mL) | OD600 ([3]; 12 mg/mL) | OD600 ([3]; 16 mg/mL) | OD600 ([3]; 21 mg/mL) | OD600 ([3]; 27 mg/mL) | OD600 ([3]; 35 mg/mL) | OD600 ([3]; 46 mg/mL) | OD600 ([3]; 59 mg/mL) | OD600 ([3]; 77 mg/mL) | OD600 ([3]; 100 mg/mL) | turbidity ([3]; up to 100 mg/mL)
5 | SP-133: GHRH peptidomimetic macrocycle (YADAIFTASYRKALAQASARKALQDILSR; not fully specified; D-residues; non-natural residues; cyclised or stapled) | > 25 | ++ (++=>5-15) | 1 to 10 | >10 |  | 0.0 | 0.0 | 0.0 | 0.0 | 0.0 | 0.0 | 0.0 | 0.0 | 0.0 | 0.0 | 0.0 | no turbidity
